Results on five molecules are retold here after BindingDB's records for patent US12473304 (Bristol-Myers Squibb, 2025).

For the experiment, the target named is Protein-arginine deiminase type-4 (Homo sapiens, UniProt Q9UM07). Nature of the experiment: RFMS Human PAD4 Functional Assay 1. As for the experimental part: Reaction volume: 26 μlAssay buffer: 25 mM hepes, pH 7.5, 5 mM NaCl, 1 mM DTT, 0.2 mg/ml BSA, 0.01% CHAPS, 50 μM Calcium, and 5 μM TPENFinal concentrations: 5 nM hPAD4 enzyme, 250 μM BASE, and 0.5% DMSOTotal incubation time: 30 mins compound and enzyme preincubation at 37° C., 90 min enzyme/substrate reaction, 30 min reaction with phenyl glyoxal at 37° C.Stop solution: 40 μl 5% TCA in ACN0.13 μL of compound solution was added to 13 μL of 10 nM PAD4 in assay buffer. After 30 min 13 μl of 500 μM of BAEE was added in 25 mM hepes, pH 7.5, 5 mM NaCl, 1 mM DTT, 0.2 mg/ml BSA, 0.01% CHAPS, 50 μM Calcium, 5 μM TPEN was added and the reaction incubated for 90 min at 37° C. The enzymatic reaction was quenched by addition of 15 μl of 6.1N TCA, 100% Final Concentration is 20%, 35 μl of 8.5 mM phenyl glyoxal (final concentration 4 mM) is then added and the reaction is incubated for 30 min at 37° C.After 30 minutes the plates are spun down to remove all precipitate. The enzyme reaction was quenched with an equal volume of methanol containing internal standard (modified citrulline). Samples were loaded onto the Rapid Fire RF300 system (Agilent) wherein they were first sipped for 1000 ms and then directly loaded to a C18 separations cartridge using a mixture of acetonitrile containing 0.01% formic acid for 3000 ms desalting. The flow rate of the mobile phase was 1.5 ml/min. Once the samples were eluted from the cartridge, a mobile phase of acetonitrile containing 0.01% formic acid was used to move the samples into the mass spectrometer for 4000 ms at a flow rate of 1.25 ml/min/Sciex API5500 triple quadrupole mass spectrometer (Applied Biosystems) equipped with ESI was used to analyze the peptidyl citrulline and internal standard ions.
Protein-arginine deiminase type-4, sequence (Q9UM07 whole entry): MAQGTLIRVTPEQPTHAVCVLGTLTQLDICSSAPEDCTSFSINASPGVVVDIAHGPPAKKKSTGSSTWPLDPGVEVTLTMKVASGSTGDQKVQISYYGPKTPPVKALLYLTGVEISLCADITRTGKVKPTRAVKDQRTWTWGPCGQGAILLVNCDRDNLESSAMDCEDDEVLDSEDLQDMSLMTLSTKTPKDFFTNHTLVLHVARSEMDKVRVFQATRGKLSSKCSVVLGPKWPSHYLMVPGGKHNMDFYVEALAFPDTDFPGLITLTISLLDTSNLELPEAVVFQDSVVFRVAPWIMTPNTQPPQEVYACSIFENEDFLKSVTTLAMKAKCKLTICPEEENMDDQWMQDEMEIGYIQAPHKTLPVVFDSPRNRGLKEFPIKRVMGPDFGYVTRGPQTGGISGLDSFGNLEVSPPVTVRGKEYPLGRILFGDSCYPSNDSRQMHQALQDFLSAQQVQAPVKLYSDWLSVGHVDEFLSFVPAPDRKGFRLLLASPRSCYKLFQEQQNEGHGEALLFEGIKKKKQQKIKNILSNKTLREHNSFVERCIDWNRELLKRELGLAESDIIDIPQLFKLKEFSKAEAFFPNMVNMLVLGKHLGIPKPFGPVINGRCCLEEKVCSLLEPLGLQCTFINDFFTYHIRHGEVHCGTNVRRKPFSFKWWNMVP
As to `Cc1c(-c2cc3ccc(-c4ccc5c(c4)CNC5=O)nc3n2CC2CC2)nn2cc(C(=O)N3CC4CCC3[C@@H]4N)ccc12` (stereo not given in full) [US12473304, Example 64], the IC50 came out at 55 nM.

Molecule `COc1cc(C(=O)N2C[C@H](N)C[C@@H](F)C2)cn2nc(-c3cc4ccc(Cl)nc4n3CC3CC3)c(C)c12` [US12473304, Example 15] registered a concentration for half-maximal inhibition (IC50) of 526 nM.

Consider `COc1cc(C(=O)N2CC3CCC2[C@@H]3N)cn2nc(-c3cc4ccc(C(C)(C)O)cc4n3CC3CC3)c(C)c12` (stereo not given in full) [US12473304, Example 97], for which the IC50 amounted to 30 nM.

In turn, `COc1cc(C(=O)N2C[C@H](N)C[C@@H](F)C2)cn2nc(-c3cc4ccc(-c5cc(F)c(C(N)=O)cc5C)nc4n3CC3CC3)c(C)c12` [US12473304, Example 207] returned a half-inhibitory concentration (IC50) of 150 nM.

Consider `COc1cc(C(=O)N2CCC[C@@H](N)C2)cn2nc(-c3cc4ccc(-c5cc(F)c(C(N)=O)cc5C)nc4n3CC3CC3)c(C)c12` [US12473304, Example 208], for which the midpoint of inhibition, the IC50, lay at 140 nM.

As usually defined, the IC50 is the midpoint of a concentration-inhibition curve. A lower IC50 goes with inhibition by little substance.
